Drawing on publication PMC5094572, “A β‐mannan utilization locus in Bacteroides ovatus involves a GH36 α‐galactosidase active on galactomannans” (Febs Letters, 2016), this text covers Km for one compound.

This assay relates to T1, BoGal36A.
T1 construct: gene Bacova_02091; predicted signal peptide removed, C-terminal His6 tag kept, pET28b+, E. coli BL21(DE3); tetramer (SEC 290 kDa)
Briefly: continuous assay, p-nitrophenol release at […] nm, Michaelis-Menten fit. It counts as biochemical, Bacteroides ovatus. The note with it: pH 6.0, 37 °C; 50 mM sodium citrate; 0.1-5 mM substrate.

In the case of `O=[N+]([O-])c1ccc(O[C@H]2O[C@H](CO)[C@H](O)[C@H](O)[C@H]2O)cc1` [pNP-α-gal], the Km was 132 ± 20 µM.

As usually defined, the Km is the concentration of substrate that gives half-maximal velocity.
